The record followed here is US20230149374A1, “METHODS AND COMPOSITIONS FOR TREATING ATHEROSCLEROSIS” (Sanford Burnham Prebys Medical Discovery Institute, priority 2021, published 2023).

Entries after “also recorded” stand apart in the source; their conditions may differ.

What all share (type): in vivo, mouse
Data set [1] deals with ApoE-deficient mice. The data set is described as follows: Tolerability: mortality and body weight. Particulars: 30 mg/kg/day, treatment up to 21 weeks. The text has this:
(§1) Four cohorts of mice were used in these studies (FIGS. 8A and 9A). Cohorts 1 and 2 were devoted to the in vivo and ex vivo characterization of TNAP-associated plaque calcification. 6-week-old ApoE-deficient male mice were received at the animal facility and placed in conventional cages with 5 mice per cage. Mice were maintained on a 12-hrs light-dark cycle (7:00 am-7:00 pm) and were supplied with food and water ad libitum. From 10 weeks of age, they were fed ad libitum with a high fat diet (HFD, D12108C, Research Diets, New Brunswick, USA) containing 40% fat (kcal) and 1.25% cholesterol (weight). In cohort 1, 8 mice were sacrificed every 2 weeks between weeks 17 to 31, for histological and molecular analyses. Total body weight was measured weekly after starting the HFD. The sacrifice was done after anesthesia with isoflurane and intracardiac blood puncture by CO2 inhalation. Tissues were harvested as described below. The abdominal aorta was used for quantitative polymerase chain reaction (PCR) analyses. Mice from cohort 2 were used to analyze aorta calcification with ^18F—NaF μPET and μCT and to compare the in vivo data with the ex vivo results obtained in cohort 1. Animals were transferred from the animal facility to the Cermep imaging platform. […] Plaque calcification was analyzed at 25 weeks, and possible side effects of TNAP inhibition were explored in mice aged 31 weeks. […]

The test system of data set [2] is ApoE-deficient mice. The data set is described as follows: Serum analyses (cholesterol, triglycerides, bile acids, IL-6, haptoglobin, glucose, LPS). The text has this: Four cohorts of mice were used in these studies (FIGS. 8A and 9A). Cohorts 1 and 2 were devoted to the in vivo and ex vivo characterization of TNAP-associated plaque calcification. 6-week-old ApoE-deficient male mice were received at the animal facility and placed in conventional cages with 5 mice per cage. Mice were maintained on a 12-hrs light-dark cycle (7:00 am-7:00 pm) and were supplied with food and water ad libitum. From 10 weeks of age, they were fed ad libitum with a high fat diet (HFD, D12108C, Research Diets, New Brunswick, USA) containing 40% fat (kcal) and 1.25% cholesterol (weight). In cohort 1, 8 mice were sacrificed every 2 weeks between weeks 17 to 31, for histological and molecular analyses. Total body weight was measured weekly after starting the HFD. The sacrifice was done after anesthesia with isoflurane and intracardiac blood puncture by CO2 inhalation. Tissues were harvested as described below. The abdominal aorta was used for quantitative polymerase chain reaction (PCR) analyses. Mice from cohort 2 were used to analyze aorta calcification with ^18F—NaF μPET and μCT and to compare the in vivo data with the ex vivo results obtained in cohort 1. Animals were transferred from the animal facility to the Cermep imaging platform. Cohorts 3 and 4 were used to determine in vivo and ex vivo the impact of TNAP inhibition on the vasculature, liver, bones, and kidneys. According to the results obtained in cohorts 1 and 2, TNAP inhibitor SBI-425 (30 mg/kg/day, formulated as a food admixture in the HFD) was administered in a preventive manner from 10 weeks of age. Treatment was stopped at 25 weeks or 31 weeks of age. Plaque calcification was analyzed at 25 weeks, and possible side effects of TNAP inhibition were explored in mice aged 31 weeks. Mice in cohort 3 (2 groups of 13 mice) were used for ex vivo analysis, and mice in cohort 4 (2 groups of 12 mice) for in vivo imaging and ex vivo analyses.
After overnight fasting, blood was collected from mice by cardiac puncture under anesthesia with isoflurane. Serum was obtained through centrifugation of the blood for 15 min at 1,500 g at 4° C. and stored at −80° C. before analysis. Concentration of total cholesterol and triglycerides were measured using a colorimetric (MAK043, Sigma) and a fluorimetric assay (MAK266, Sigma), respectively. Total bile acids were assayed with a commercial enzyme-based colorimetric kit (Abcam Ab239702). Serum IL-6 and haptoglobin levels were determined using the commercially available ELISA kits (Fischer Scientific 10110623 and Abcam 157714, respectively). The alkaline phosphatase activity assay was performed in a 96-well plate. Briefly, sera were mixed with a concentrated buffer at a ratio of 2.85:1 (vol/vol) in order to get final concentration of 0.56 M 2-amino-2-methyl-1-propanol buffer pH 10.5, 1 mM MgCl2 and 10 mM p-nitrophenylphosphate. Absorbance was acquired for 5 min at 405 nm (Tecan plate reader). The slope was calculated to determine TNAP activity levels in each sample and normalized to protein amounts measured with the BCA protein assay (Pierce).

Data set [3] relates to ApoE-deficient mice. Kind of data set: Bone architecture by micro-CT of the femur. The settings on record: 30 mg/kg/day, treatment up to 21 weeks (31 weeks of age).
Source text: as §1

Setting [4] is: ApoE-deficient mice, 30 mg/kg/day, 25 weeks, fasting, vs control.
Setting [5] is: ApoE-deficient mice, 30 mg/kg/day, 25 weeks, vs control.

Take `COc1ccc(Cl)cc1S(=O)(=O)Nc1cncc(C(N)=O)c1` [SBI-425]: in the data set with ApoE-deficient mice [1], the body weight entry is “no effect; also recorded: did not significantly change” and the mortality result was “no effect”. In addition, in the data set on ApoE-deficient mice [2] (setting [4]), the “serum levels of cholesterol” value was “significantly decreased” and the “serum levels of triglycerides (TGs)” value is “significantly decreased”. In the data set with ApoE-deficient mice [2] (setting [5]), the fasting glycemia entry is on record as “did not modulate”; the “serum IL-6 levels” value was “reduced serum IL-6 levels, although not significantly”; the “serum bile acids levels” value is given as “did not change”; the serum haptoglobin levels result is given as “nor changed”. Further, the systemic inflammation entry in the data set on ApoE-deficient mice [2] (mouse experiments, administration for several months) is listed as “did not significantly change”. Also, in the data set on ApoE-deficient mice [3], the bone architecture result was “no effect; also recorded: did not significantly change”.
